Reference: ChEMBL document CHEMBL6096692, “Discovery of 2(1H)-Quinoxalinone Derivatives as Potent and Selective MAT2A Inhibitors for the Treatment of MTAP-Deficient Cancers” (J Med Chem, 2025)
pIC50: −log10 of the molar value. Converted amounts (≈) assume the structure as drawn. The source made the active and inactive calls. The calls are words filed in the database; no cut-off is given here.

Legend:
B16-F10 [1] = assay: Antitumor activity against MTAP-knockout mouse B16-F10 cells implanted in mouse assessed as reduction in SAM level in plasma at 30 to 60 mg/kg, po administered for 10 days and measured after 12 hrs; type: functional, organism-based; conditions: dose 30-60 mg/kg, time 10.5 day
MDA-MB-231 = assay: Antiproliferative activity against MTAP null human MDA-MB-231 cells assessed as inhibition of cell viability measured for 96 hrs by SRB assay; type: functional, cell-based
MIA PaCa-2 [2] = assay: Antiproliferative activity against MTAP null human MIA PaCa-2 cells assessed as inhibition of cell viability measured for 96 hrs by SRB assay; type: functional, cell-based
[3] = Half life in male ICR mouse at 1 mg/kg, iv measured upto 36 hrs by LC-MS/MS analysis; type: ADME, organism-based; conditions: in vivo
[4] = Selectivity index, ratio of IC50 for antiproliferative activity against MTAP knockout human SF-126 cells to IC50 for antiproliferative activity against human SF-126 cells harboring wild type MTAP; type: functional
[5] = Plasma protein binding in mouse assessed as unbound fraction; type: ADME, cell-free
[6] = Toxicity in ICR mouse at 500 mg/kg, po measured for 7 days; type: organism-based; conditions: in vivo, 168 h, time 7 day
[7] = Half life in male ICR mouse at 10 mg/kg, po measured upto 36 hrs by LC-MS/MS analysis; type: ADME, organism-based; conditions: in vivo
[8] = molecular target: Voltage-gated inwardly rectifying potassium channel KCNH2 (Homo sapiens, UniProt Q12809); assay: Inhibition of hERG expressed in CHO cells incubated for 12 hrs by Qpatch assay; type: toxicity, cell-based
MCF7 = assay: Antiproliferative activity against MTAP null human MCF7 cells assessed as inhibition of cell viability measured for 96 hrs by SRB assay; type: functional, cell-based
[9] = AUC (0 to t) in male ICR mouse at 1 mg/kg, iv measured upto 36 hrs by LC-MS/MS analysis; type: ADME, organism-based; conditions: in vivo
B16-F10 [10] = assay: Inhibition of MAT2A in MTAP knockout mouse B16-F10 cells assessed as reduction in SAM level measured for 4 hrs by immunoblotting analysis; type: cell-based; conditions: dose <= 1.0 µM
[11] = Kinetic solubility of compound in phosphate buffer at pH 7.4; type: physicochemical; conditions: read-out: Kinetic_solubility
B16-F10 [12] = assay: Antiproliferative activity against mouse B16-F10 cells harboring wild type MTAP assessed as inhibition of cell viability measured for 96 hrs by SRB assay; type: functional, cell-based; conditions: B16-F10, 96 h
[13] = Cmax in male ICR mouse at 10 mg/kg, po measured upto 36 hrs by LC-MS/MS analysis; type: ADME, organism-based; conditions: in vivo
NCI-H838 = assay: Antiproliferative activity against MTAP null human NCI-H838 cells assessed as inhibition of cell viability measured for 96 hrs by SRB assay; type: functional, cell-based
B16-F10 [14] = assay: Antitumor activity against MTAP-knockout mouse B16-F10 cells implanted mouse assessed as reduction in SAM level in tumor at 30 to 60 mg/kg, po administered for 10 days and measured after 12 hrs; type: functional, organism-based; conditions: dose 30-60 mg/kg, time 10.5 day
Cytochrome P450 2C19 = Cytochrome P450 2C19 (Homo sapiens, UniProt P33261); assay: Inhibition of CYP2C19 in human liver microsomes using S-mephenytoin as substrate incubated for 10 mins in presence of NADPH by LC-MS/MS analysis; type: ADME, Microsome
MIA PaCa-2 [15] = assay: Antitumor activity against MTAP null human MIA PaCa-2 cells xenografted in mouse assessed as inhibition of SAM production in tumor at 30 to 60 mg/kg, po measured after 28 days; type: functional, organism-based; conditions: dose 30-60 mg/kg, time 28.0 day
Cytochrome P450 2D6 = Cytochrome P450 2D6 (Homo sapiens, UniProt P10635); assay: Inhibition of CYP2D6 in human liver microsomes using dextromethorphan as substrate incubated for 10 mins in presence of NADPH by LC-MS/MS analysis; type: ADME, Microsome
NCI-H1437 = assay: Antiproliferative activity against MTAP null human NCI-H1437 cells assessed as inhibition of cell viability measured for 96 hrs by SRB assay; type: functional, cell-based
[16] = molecular target: S-adenosylmethionine synthase isoform type-2 (Mus musculus) (UniProt Q3THS6); assay: Inhibition of MAT2A in MTAP null mouse B16-F10 cells assessed as reduction in SAM level measured for 4 hrs by immunoblotting analysis; type: cell-based; conditions: dose <= 1.0 µM
MIA PaCa-2 [17] = assay: Antitumor activity against MTAP null human MIA PaCa-2 cells xenografted in mouse assessed as inhibition of SAM production in plasma at 30 to 60 mg/kg, po measured after 28 days; type: functional, organism-based; conditions: dose 30-60 mg/kg, time 28.0 day
[18] = molecular target: T1, S-adenosylmethionine synthase isoform type-2 (Homo sapiens, UniProt P31153); assay: Inhibition of MAT2A (unknown origin) using L-methionine and ATP as substrate preincubated with compound for 10 mins followed by substrate addition and measured after 60 mins by kinase-glo max reagent based microplate reader analysis
Target sequence in this assay (P31153 whole entry, canonical isoform): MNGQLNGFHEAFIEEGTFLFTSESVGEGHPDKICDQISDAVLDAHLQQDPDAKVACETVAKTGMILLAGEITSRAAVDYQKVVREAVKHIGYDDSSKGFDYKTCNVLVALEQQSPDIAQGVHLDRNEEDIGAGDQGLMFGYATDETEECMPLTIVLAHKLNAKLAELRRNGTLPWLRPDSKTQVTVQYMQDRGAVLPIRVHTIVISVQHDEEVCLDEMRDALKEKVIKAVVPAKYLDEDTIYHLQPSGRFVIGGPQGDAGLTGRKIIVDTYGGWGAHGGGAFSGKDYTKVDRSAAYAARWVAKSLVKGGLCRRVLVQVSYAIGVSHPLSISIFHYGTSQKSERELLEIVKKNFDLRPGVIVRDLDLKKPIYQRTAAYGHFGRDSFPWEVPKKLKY

MIA PaCa-2 [19] = assay: Antitumor activity against MTAP null human MIA PaCa-2 cells xenografted in mouse assessed as tumor growth inhibition at 60 mg/kg, po measured after 28 days; type: functional, organism-based; conditions: time 28.0 day
MKN-45 = assay: Antiproliferative activity against MTAP null human MKN-45 cells assessed as inhibition of cell viability measured for 96 hrs by SRB assay; type: functional, cell-based
[20] = Clearance in male ICR mouse at 1 mg/kg, iv measured upto 36 hrs by LC-MS/MS analysis; type: ADME, organism-based; conditions: in vivo
[21] = molecular target: Protein arginine N-methyltransferase 5 (Homo sapiens) (UniProt O14744); assay: Inhibition of PRMT5 in MTAP-null human MIA PaCa-2 cells incubated for 24 hrs by Western blot analysis; type: cell-based
[22] = molecular target: T1, S-adenosylmethionine synthase isoform type-2; assay: Inhibition of MAT2A in human MIA PaCa-2 cells assessed as reduction in SAM level measured for 4 hrs by immunoblotting analysis; type: cell-based; conditions: dose <= 1.0 µM
Target sequence in this assay (P31153 whole entry, looked up, canonical isoform): as the sequence (P31153 whole entry, canonical isoform) above

SF-126 [23] = assay: Induction of DNA damage in human SF-126 cells harboring wild type MTAP assessed as increase in gammaH2AX level at 0.1 to 10 uM measured for 96 hrs by immunofluorescence analysis; type: functional, cell-based; conditions: dose 0.1-10 µM
SF-126 [24] = assay: Induction of DNA damage in MTAP knockout human SF-126 cells assessed as increase in gammaH2AX level at 0.1 to 10 uM measured for 96 hrs by immunofluorescence analysis; type: functional, cell-based; conditions: dose 0.1-10 µM
[25] = molecular target: S-adenosylmethionine synthase isoform type-2 (Mus musculus) (UniProt Q3THS6); assay: Inhibition of MAT2A in mouse B16-F10 cells assessed as reduction in SAM level measured for 4 hrs by immunoblotting analysis; type: cell-based; conditions: dose <= 1.0 µM
Daoy = assay: Antiproliferative activity against MTAP null human Daoy cells assessed as inhibition of cell viability measured for 96 hrs by SRB assay; type: functional, cell-based
B16-F10 [26] = assay: Antiproliferative activity against MTAP knockout mouse B16-F10 cells assessed as inhibition of cell viability measured for 96 hrs by SRB assay; type: functional, cell-based; conditions: B16-F10, 96 h
BXPC-3 = assay: Antiproliferative activity against MTAP null human BXPC-3 cells assessed as inhibition of cell viability measured for 96 hrs by SRB assay; type: functional, cell-based
B16-F10 [27] = assay: Antitumor activity against MTAP-knockout mouse B16-F10 cells implanted in mouse assessed as reduction in tumor volume at 30 to 60 mg/kg, po administered for 10 days and measured after 12 days; type: functional, organism-based; conditions: dose 30-60 mg/kg, time 22.0 day
[28] = Cmax in male ICR mouse at 1 mg/kg, iv measured upto 36 hrs by LC-MS/MS analysis; type: ADME, organism-based; conditions: in vivo

Chain of S-adenosylmethionine synthase isoform type-2 (Mus musculus) (Q3THS6 whole entry, canonical isoform): as the sequence (P31153 whole entry, canonical isoform) above, with V77I, V87I counted along it
Chain of Cytochrome P450 2D6 (P10635 whole entry): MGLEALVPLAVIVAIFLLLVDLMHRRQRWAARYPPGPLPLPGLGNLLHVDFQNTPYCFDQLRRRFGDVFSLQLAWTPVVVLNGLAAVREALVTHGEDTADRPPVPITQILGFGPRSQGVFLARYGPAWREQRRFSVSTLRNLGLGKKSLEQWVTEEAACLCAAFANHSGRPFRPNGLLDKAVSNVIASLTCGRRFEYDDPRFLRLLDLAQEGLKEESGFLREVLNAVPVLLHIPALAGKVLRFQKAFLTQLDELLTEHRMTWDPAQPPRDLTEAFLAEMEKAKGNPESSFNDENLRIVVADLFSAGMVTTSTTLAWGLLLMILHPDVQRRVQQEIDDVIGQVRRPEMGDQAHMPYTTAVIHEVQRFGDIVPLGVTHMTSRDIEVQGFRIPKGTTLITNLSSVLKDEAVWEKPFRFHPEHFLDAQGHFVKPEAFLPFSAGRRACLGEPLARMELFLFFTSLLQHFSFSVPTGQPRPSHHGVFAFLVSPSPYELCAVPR
Chain of Protein arginine N-methyltransferase 5 (Homo sapiens) (O14744 whole entry, canonical isoform): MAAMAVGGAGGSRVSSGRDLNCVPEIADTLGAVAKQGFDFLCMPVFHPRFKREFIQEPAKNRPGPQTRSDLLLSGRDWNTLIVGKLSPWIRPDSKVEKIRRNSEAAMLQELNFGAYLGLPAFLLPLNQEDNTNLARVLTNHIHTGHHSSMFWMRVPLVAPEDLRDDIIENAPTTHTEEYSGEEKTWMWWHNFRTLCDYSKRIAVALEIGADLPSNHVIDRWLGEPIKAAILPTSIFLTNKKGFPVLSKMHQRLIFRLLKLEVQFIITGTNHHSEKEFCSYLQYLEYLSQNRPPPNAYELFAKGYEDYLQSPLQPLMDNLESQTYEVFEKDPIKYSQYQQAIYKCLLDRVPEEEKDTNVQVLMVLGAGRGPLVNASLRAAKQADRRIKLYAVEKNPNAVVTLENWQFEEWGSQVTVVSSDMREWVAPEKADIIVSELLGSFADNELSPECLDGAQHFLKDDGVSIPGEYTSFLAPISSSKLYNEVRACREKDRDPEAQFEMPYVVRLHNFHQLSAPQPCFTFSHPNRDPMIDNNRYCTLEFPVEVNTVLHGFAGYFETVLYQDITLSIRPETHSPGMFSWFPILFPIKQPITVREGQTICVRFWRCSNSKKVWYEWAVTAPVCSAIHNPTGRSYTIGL
Chain of Voltage-gated inwardly rectifying potassium channel KCNH2 (Q12809 whole entry): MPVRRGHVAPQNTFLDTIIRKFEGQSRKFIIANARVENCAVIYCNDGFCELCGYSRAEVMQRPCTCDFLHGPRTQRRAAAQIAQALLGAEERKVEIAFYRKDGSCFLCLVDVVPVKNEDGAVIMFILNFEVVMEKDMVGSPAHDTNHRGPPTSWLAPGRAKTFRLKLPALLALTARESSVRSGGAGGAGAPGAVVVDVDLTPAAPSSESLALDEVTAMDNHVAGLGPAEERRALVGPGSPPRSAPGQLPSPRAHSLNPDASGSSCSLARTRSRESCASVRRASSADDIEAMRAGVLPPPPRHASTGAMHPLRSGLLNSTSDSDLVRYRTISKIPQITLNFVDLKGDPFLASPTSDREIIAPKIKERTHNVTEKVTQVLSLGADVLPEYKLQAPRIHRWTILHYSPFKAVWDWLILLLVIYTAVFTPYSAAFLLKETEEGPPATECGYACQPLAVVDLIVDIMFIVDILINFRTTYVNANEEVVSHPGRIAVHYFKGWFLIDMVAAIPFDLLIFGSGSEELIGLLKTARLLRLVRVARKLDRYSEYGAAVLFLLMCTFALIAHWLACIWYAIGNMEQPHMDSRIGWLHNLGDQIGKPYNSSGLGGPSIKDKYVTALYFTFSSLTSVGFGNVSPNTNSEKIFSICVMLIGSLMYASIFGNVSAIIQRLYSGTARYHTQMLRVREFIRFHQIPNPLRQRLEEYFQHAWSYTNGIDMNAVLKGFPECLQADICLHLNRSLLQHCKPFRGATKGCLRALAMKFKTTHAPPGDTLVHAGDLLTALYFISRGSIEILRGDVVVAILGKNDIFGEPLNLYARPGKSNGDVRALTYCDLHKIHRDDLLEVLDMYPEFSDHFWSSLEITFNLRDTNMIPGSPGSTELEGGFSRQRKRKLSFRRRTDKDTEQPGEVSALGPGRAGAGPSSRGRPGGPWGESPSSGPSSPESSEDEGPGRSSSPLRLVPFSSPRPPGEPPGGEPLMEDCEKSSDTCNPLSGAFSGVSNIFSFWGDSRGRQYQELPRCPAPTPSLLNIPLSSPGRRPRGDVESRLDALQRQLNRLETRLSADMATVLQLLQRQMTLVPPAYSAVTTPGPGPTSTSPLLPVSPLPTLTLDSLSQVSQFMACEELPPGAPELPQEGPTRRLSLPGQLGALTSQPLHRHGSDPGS
Chain of Cytochrome P450 2C19 (P33261 whole entry): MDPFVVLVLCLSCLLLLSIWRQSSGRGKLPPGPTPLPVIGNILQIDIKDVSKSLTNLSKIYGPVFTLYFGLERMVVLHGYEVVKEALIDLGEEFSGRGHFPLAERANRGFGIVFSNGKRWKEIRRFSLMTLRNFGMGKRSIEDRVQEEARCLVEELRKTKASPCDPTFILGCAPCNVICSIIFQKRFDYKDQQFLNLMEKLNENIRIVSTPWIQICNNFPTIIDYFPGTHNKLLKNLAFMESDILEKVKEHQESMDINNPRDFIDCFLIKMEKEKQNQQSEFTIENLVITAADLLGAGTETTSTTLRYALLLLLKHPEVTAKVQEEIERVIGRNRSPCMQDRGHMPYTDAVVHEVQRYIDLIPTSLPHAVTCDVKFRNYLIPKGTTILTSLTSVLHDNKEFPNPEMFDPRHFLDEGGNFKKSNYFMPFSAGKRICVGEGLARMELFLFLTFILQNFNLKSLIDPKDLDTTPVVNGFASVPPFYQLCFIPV

**Q.** For `Cn1cnc2ccc(-c3nc4ccc(C5CC5)cc4n(-c4ccc(OC(F)F)cc4)c3=O)cc21`, which Activity (B16-F10 [1]) is on record?
**A.** Active

**Q.** What about the Activity (MDA-MB-231) of the same molecule?
**A.** Active

**Q.** What about the Activity (MIA PaCa-2 [2]) of the same molecule?
**A.** Active

**Q.** What about the half-life [3] of the same molecule?
**A.** 8.43 h

**Q.** What about the “Ratio IC50” value [4] of the same molecule?
**A.** >57

**Q.** And the fraction unbound [5]?
**A.** 0.016

**Q.** And the Activity [6]?
**A.** Non-toxic

**Q.** And the half-life [7]?
**A.** 6.73 h

**Q.** And the pIC50 [8]?
**A.** 4.42

**Q.** And the Activity (MCF7)?
**A.** Active

**Q.** And the AUC(0-t) at 36 h [9]?
**A.** 3100 ng·h/mL

**Q.** What about the inhibition (B16-F10 [10]) of the same molecule?
**A.** Dose-dependent-effect

**Q.** And the solubility kinetic [11]?
**A.** 3.11 µM (≈ 1.43 µg/mL)

**Q.** And the pIC50 (B16-F10 [12])?
**A.** < 4.70

**Q.** And the Cmax [13]?
**A.** 2600 ng/mL

**Q.** And the Activity (NCI-H838)?
**A.** Active

**Q.** And the Activity (B16-F10 [14])?
**A.** Active

**Q.** What about the pIC50 (Cytochrome P450 2C19) of the same molecule?
**A.** 5.06

**Q.** And the Activity (MIA PaCa-2 [15])?
**A.** Active

**Q.** And the pIC50 (Cytochrome P450 2D6)?
**A.** 5.04

**Q.** What about the Activity (NCI-H1437) of the same molecule?
**A.** Active

**Q.** What about the inhibition [16] of the same molecule?
**A.** Active

**Q.** What about the Activity (MIA PaCa-2 [17]) of the same molecule?
**A.** Active

**Q.** What about the pIC50 [18] of the same molecule?
**A.** 7.31

**Q.** And the TGI (MIA PaCa-2 [19])?
**A.** Active

**Q.** What about the Activity (MKN-45) of the same molecule?
**A.** Active

**Q.** What about the clearance [20] of the same molecule?
**A.** 5.17 mL/min/kg

**Q.** What about the inhibition [21] of the same molecule?
**A.** Active

**Q.** What about the inhibition [22] of the same molecule?
**A.** Dose-dependent-effect

**Q.** What about the Activity (SF-126 [23]) of the same molecule?
**A.** Active

**Q.** And the Activity (SF-126 [24])?
**A.** Active

**Q.** What about the inhibition [25] of the same molecule?
**A.** Dose-dependent-effect

**Q.** And the Activity (Daoy)?
**A.** Active

**Q.** What about the pIC50 (B16-F10 [26]) of the same molecule?
**A.** 6.37

**Q.** And the Activity (BXPC-3)?
**A.** Active

**Q.** And the Activity (B16-F10 [27])?
**A.** Active

**Q.** What about the Cmax [28] of the same molecule?
**A.** 985 ng/mL
